Reference: patent US20080234254A1, “Inhibitors of Histone Deacetylase” (UNIVERSITY OF LEEDS, priority 2004, published 2008)
Read-outs that look alike come from different tables or passages of the source.

Columns and labels:
Assay type in all cases: cell-based
MDA-MB-231/ATCC = test: Screening against cancer cell lines: MDA-MB-231/ATCC (Breast)
Source text: (§1) Screening of Benzamide Derivatives Against Cancer Cell Lines Tables 1 and 2 tabulate by way of example the results obtained for compounds (4) and (6).
(§2) 7 breast cancer cell lines were screened against both compound (4) and MS275.

RXF 393 = test: Screening against cancer cell lines: RXF 393 (Renal)
Source text: as §1
(§3) 7 renal cancer cell lines were screened against both compound (4) and MS275.

SK-MEL-28 = test: Screening against cancer cell lines: SK-MEL-28 (Melanoma)
Source text: as §1
(§4) 7 melanoma cancer cell lines were screened against both compound (4) and MS275.

NCI-H522 = test: Screening against cancer cell lines: NCI-H522 (Non-Small Cell Lung)
Source text: as §1
(§5) 8 non-small cell lung cancer cell lines were screened against both compound (4) and MS275.

UACC-257 = test: Screening against cancer cell lines: UACC-257 (Melanoma)
Source text: as §1, §4

KM-12 = test: Comparison test versus MS275: KM-12 (colon cancer); conditions: Homo sapiens, KM12, read-out: potency (quantity not named; values match GI50 of Table 1)
Source text: (§6) 6 colon cancer cell lines were screened against both compound (4) and MS275.

[1] = tested on: non-small cell lung cancer cell lines; test: Comparison test versus MS275: 8 non-small cell lung cancer cell lines; conditions: in 2 cell lines of 8 non-small cell lung cancer cell lines screened
Source text: as §5

OVCAR-8 = test: Screening against cancer cell lines: OVCAR-8 (Ovarian)
Source text: as §1

LOX IMVI = test: Screening against cancer cell lines: LOX IMVI (Melanoma)
Source text: as §1, §4

OVCAR-4 = test: Comparison test versus MS275: OVCAR-4 (ovarian cancer); conditions: Homo sapiens, read-out: potency (quantity not named; values match GI50 of Table 1)
Source text: (§7) 6 ovarian cancer cell lines were screened against both compound (4) and MS275.

HCT-15 = test: Screening against cancer cell lines: HCT-15 (Colon)
Source text: as §1, §6

[2] = tested on: ovarian cancer cell lines; test: Comparison test versus MS275: 6 ovarian cancer cell lines; conditions: in 3 cell lines of 6 ovarian cancer cell lines screened
Source text: as §7

SN12C = test: Screening against cancer cell lines: SN12C (Renal)
Source text: as §1, §3

cancer cell lines = test: Screening of benzamide derivatives against cancer cell lines (summary); conditions: summary of Tables 1 and 2
Source text: as §1

786-0 = test: Comparison test versus MS275: 786-0 (renal cancer); conditions: Homo sapiens, read-out: potency (quantity not named; values match GI50 of Table 1)
Source text: as §3

NCI/ADR-RES = test: Screening against cancer cell lines: NCI/ADR-RES (Breast)
Source text: as §1, §2

SK-OV-3 = test: Comparison test versus MS275: SK-OV-3 (ovarian cancer); conditions: Homo sapiens, read-out: potency (quantity not named; values match GI50 of Table 1)
Source text: as §7

SR = test: Screening against cancer cell lines: SR (Leukaemia); conditions: Leukaemia
Source text: as §1

IGROV1 = test: Screening against cancer cell lines: IGROV1 (Ovarian)
Source text: as §1, §7

HCC-2998 = test: Screening against cancer cell lines: HCC-2998 (Colon)
Source text: as §1, §6

colon cancer cell lines = test: Comparison test versus MS275: 6 colon cancer cell lines; conditions: in 3 cell lines of 6 colon cancer cell lines screened
Source text: as §6

ACHN = test: Screening against cancer cell lines: ACHN (Renal)
Source text: as §1, §3

breast cancer cell lines = test: Comparison test versus MS275: 7 breast cancer cell lines; conditions: in 3 cell lines of 7 breast cancer cell lines screened
Source text: as §2

RPMI-8226 = test: Screening against cancer cell lines: RPMI-8226 (Leukaemia)
Source text: as §1

NCI-H23 = test: Screening against cancer cell lines: NCI-H23 (Non-Small Cell Lung)
Source text: as §1, §5

renal cancer cell lines = test: Comparison test versus MS275: 7 renal cancer cell lines; conditions: in 4 cell lines of 7 renal cancer cell lines screened
Source text: as §3

MDA-MB-435 = test: Screening against cancer cell lines: MDA-MB-435 (Breast)
Source text: as §1, §2

[3] = Homo sapiens, Breast, Table 1, read-out: GI50
[4] = Homo sapiens, Breast, Table 1, read-out: LC50 (the source's name)
[5] = Homo sapiens, breast cancer, comparison versus MS275, read-out: potency (quantity not named; values match GI50 of Table 1)
[6] = Homo sapiens, Table 1, read-out: LC50 (the source's name)
[7] = Homo sapiens, Renal, Table 1, read-out: GI50
[8] = Homo sapiens, Renal, Table 1, read-out: LC50 (the source's name)
[9] = Homo sapiens, renal cancer, comparison versus MS275, read-out: potency (quantity not named; values match GI50 of Table 1)

Structure (SMILES): C=C(CN1CCc2ccccc2C1)c1ccc(C(=O)Nc2ccccc2N)cc1 [Compound (4), N-(2-Amino-phenyl)-4-[1-(3,4-dihydroisoquinolin-2(1H)-ylmethyl)vinyl]benzamide]
- TGI (MDA-MB-231/ATCC; Breast, Table 1): 2700 nM
- GI50 (MDA-MB-231/ATCC; [3]): 748 nM
- CC50 (MDA-MB-231/ATCC; [4]): 19200 nM
- GI50 (MDA-MB-231/ATCC; [5]): 750 nM
- GI50 (RXF 393; Homo sapiens, RXF 393, Renal, Table 1, read-out: GI50): 102 nM
- CC50 (RXF 393; Homo sapiens, RXF 393, Renal, Table 1, read-out: LC50 (the source's name)): 46000 nM
- GI50 (RXF 393; Homo sapiens, RXF 393, renal cancer, comparison versus MS275, read-out: potency (quantity not named; values match GI50 of Table 1)): 100 nM
- TGI (RXF 393; RXF 393, Renal, Table 1): 600 nM
- GI50 (SK-MEL-28; Homo sapiens, SK-MEL-28, Melanoma, Table 1, read-out: GI50): 389 nM
- CC50 (SK-MEL-28; Homo sapiens, SK-MEL-28, Melanoma, Table 1, read-out: LC50 (the source's name)): > 50000 nM
- GI50 (SK-MEL-28; Homo sapiens, SK-MEL-28, melanoma, comparison versus MS275, read-out: potency (quantity not named; values match GI50 of Table 1)): 390 nM
- TGI (SK-MEL-28; SK-MEL-28, Melanoma, Table 1): 6500 nM
- GI50 (NCI-H522; Homo sapiens, NCI-H522, Non-Small Cell Lung, Table 1, read-out: GI50): 220 nM
- CC50 (NCI-H522; Homo sapiens, NCI-H522, Non-Small Cell Lung, Table 1, read-out: LC50 (the source's name)): 20800 nM
- GI50 (NCI-H522; Homo sapiens, NCI-H522, non-small cell lung cancer, comparison versus MS275, read-out: potency (quantity not named; values match GI50 of Table 1)): 220 nM
- TGI (NCI-H522; NCI-H522, Non-Small Cell Lung, Table 1): 1400 nM
- GI50 (UACC-257; Homo sapiens, UACC-257, Melanoma, Table 1, read-out: GI50): 499 nM
- CC50 (UACC-257; Homo sapiens, UACC-257, Melanoma, Table 1, read-out: LC50 (the source's name)): > 50000 nM
- GI50 (UACC-257; Homo sapiens, UACC-257, melanoma, comparison versus MS275, read-out: potency (quantity not named; values match GI50 of Table 1)): 500 nM
- TGI (UACC-257; UACC-257, Melanoma, Table 1): 15500 nM
- GI50 (KM-12): 1150 nM
- potency over MS275 [1]: > 2 fold
- GI50 (OVCAR-8; Homo sapiens, Table 1): 768 nM
- CC50 (OVCAR-8; [6]): > 50000 nM
- TGI (OVCAR-8; Table 1): 12500 nM
- GI50 (LOX IMVI; Homo sapiens, Melanoma, Table 1, read-out: GI50): 99 nM
- CC50 (LOX IMVI; Homo sapiens, Melanoma, Table 1, read-out: LC50 (the source's name)): 6400 nM
- GI50 (LOX IMVI; Homo sapiens, melanoma, comparison versus MS275, read-out: potency (quantity not named; values match GI50 of Table 1)): 90 nM
- TGI (LOX IMVI; Melanoma, Table 1): 600 nM
- GI50 (OVCAR-4): 1910 nM
- TGI (HCT-15; HCT-15, Colon, Table 1): 7800 nM
- GI50 (HCT-15; Homo sapiens, HCT-15, Colon, Table 1, read-out: GI50): 836 nM
- CC50 (HCT-15; Homo sapiens, HCT-15, Colon, Table 1, read-out: LC50 (the source's name)): > 50000 nM
- GI50 (HCT-15; Homo sapiens, HCT-15, colon cancer, comparison versus MS275, read-out: potency (quantity not named; values match GI50 of Table 1)): 840 nM
- potency over MS275 [2]: > 2 fold
- GI50 (SN12C; [7]): 629 nM
- CC50 (SN12C; [8]): 27000 nM
- GI50 (SN12C; [9]): 630 nM
- TGI (SN12C; Renal, Table 1): 2700 nM
- activity against cancer cell lines (in words) (cancer cell lines): potently inhibited
- GI50 (786-0): 1050 nM
- TGI (NCI/ADR-RES; Breast, Table 1): 2000 nM
- GI50 (NCI/ADR-RES; [3]): 613 nM
- CC50 (NCI/ADR-RES; [4]): > 50000 nM
- GI50 (NCI/ADR-RES; [5]): 610 nM
- GI50 (SK-OV-3): 1080 nM
- GI50 (SR; Homo sapiens, Table 1, read-out: GI50): 484 nM
- CC50 (SR; [6]): > 50000 nM
- TGI (SR; Table 1): — (‘—’ indicates a concentration exceeding 50 μM.)
- GI50 (IGROV1; Homo sapiens, IGROV-1, IGROV1, Ovarian, Table 1, read-out: GI50): 245 nM
- CC50 (IGROV1; Homo sapiens, IGROV-1, IGROV1, Ovarian, Table 1, read-out: LC50 (the source's name)): > 50000 nM
- GI50 (IGROV1; Homo sapiens, IGROV-1, IGROV1, ovarian cancer, comparison versus MS275, read-out: potency (quantity not named; values match GI50 of Table 1)): 250 nM
- TGI (IGROV1; IGROV1, Ovarian, Table 1): 10500 nM
- TGI (HCC-2998; HCC-2998, Colon, Table 1): 400 nM
- GI50 (HCC-2998; Homo sapiens, HCC-2998, Colon, Table 1, read-out: GI50): 90 nM
- CC50 (HCC-2998; Homo sapiens, HCC-2998, Colon, Table 1, read-out: LC50 (the source's name)): 2000 nM
- GI50 (HCC-2998; Homo sapiens, HCC-2998, colon cancer, comparison versus MS275, read-out: potency (quantity not named; values match GI50 of Table 1)): 90 nM
- potency over MS275 (colon cancer cell lines): > 2 fold
- GI50 (ACHN; [7]): 844 nM
- CC50 (ACHN; [8]): 14400 nM
- GI50 (ACHN; [9]): 840 nM
- TGI (ACHN; Renal, Table 1): 2800 nM
- potency over MS275 (breast cancer cell lines): > 2 fold
- GI50 (RPMI-8226; Homo sapiens, Table 1): 510 nM
- CC50 (RPMI-8226; [6]): > 50000 nM
- TGI (RPMI-8226; Table 1): — (‘—’ indicates a concentration exceeding 50 μM.)
- GI50 (NCI-H23; Homo sapiens, NCI-H23, Non-Small Cell Lung, Table 1, read-out: GI50): 178 nM
- CC50 (NCI-H23; Homo sapiens, NCI-H23, Non-Small Cell Lung, Table 1, read-out: LC50 (the source's name)): 11400 nM
- GI50 (NCI-H23; Homo sapiens, NCI-H23, non-small cell lung cancer, comparison versus MS275, read-out: potency (quantity not named; values match GI50 of Table 1)): 180 nM
- TGI (NCI-H23; NCI-H23, Non-Small Cell Lung, Table 1): 1500 nM
- potency over MS275 (renal cancer cell lines): > 2 fold
- GI50 (MDA-MB-435; Homo sapiens, MDA-MB-435, Breast, Table 1, read-out: GI50): 98 nM
- CC50 (MDA-MB-435; Homo sapiens, MDA-MB-435, Breast, Table 1, read-out: LC50 (the source's name)): ~4000 nM
- GI50 (MDA-MB-435; Homo sapiens, MDA-MB-435, breast cancer, comparison versus MS275, read-out: potency (quantity not named; values match GI50 of Table 1)): 90 nM
- TGI (MDA-MB-435; MDA-MB-435, Breast, Table 1): 600 nM
